# Measured values from patent US9155694B2, “Stabilized composition comprising at least one adrenergic compound” (ALK AG, priority 2009, dated 2015).
# Columns and labels:
# [1] = 0.25% di-sodium edetate admixed; 60° C., up to 28 days; at the metabisulfite levels contemplated
# Protocol: (§1) A 1.1 mg/ml solution of adrenaline (6.004×10^−3 M), in the form of the tartrate, pH 3.4 and containing 0.6% sodium chloride was used. A range of metabisulfite antioxidant concentrations, with and without admixture of 0.25% di-sodium edetate as chelating agent were tested. The metabisulfite/adrenaline molar ratios tested were 0.1, 0.2, 0.5, 1.0 and 1.5, which correspond to sulfite/adrenaline ratios of 0.2, 0.4, 1.0, 2.0 and 3.0, respectively. For the ease of reference to the general description and claims of this specification, the said values correspond to a molar ratio of adrenaline to sulfite of 5.0, 2.5, 1.0, 0.5 and 0.33, respectively.
# (§2) The accelerated test temperature was 60° C., protected from light, and samples were pulled at 0, 7, 14, 21 and 28 days. At each pull point, the appearance of the test solution was assessed, the pH measured and the solution assayed for adrenaline content. The appearance of degradation products was noted as area %.
# [adr]^+ relates to samples containing 0.025% di-sodium edetate, whereas [adr] relates to samples containing no chelating agent.
# [2] = Further stability testing, thermal stress at 60° C. protected from light (Example 3); type: physicochemical
# Protocol: (§3) The formulation solutions were prepared at a level of 1.0 mg/ml adrenaline (in the form of the tartrate), pH 3.4 containing 0.6% sodium chloride, with various molar ratios (0.25-0.59) of sodium metabisulfite added. The metabisulfite/adrenaline molar ratios tested were 0.25, 0.34, 0.42, 0.5 and 0.59, which correspond to sulfite/adrenaline ratios of 0.5, 0.68, 0.84, 1.0 and 1.18, respectively. For the ease of reference to the general description and claims of this specification, the said values correspond to a molar ratio of adrenaline to sulfite of 2.0, 1.47, 1.19, 1.0 and 0.85, respectively.
# (§4) Each sample solution was split into two lots. For each sample solution, one lot was placed at the accelerated test temperature of 60° C., protected from light and the other lot placed in a photo-stability cabinet at 25° C. which provided 13400 lux visible light, 1.50 W·h/m^2 UV. Samples were pulled from both conditions at 0, 7, 14 and 28 days At each pull point, the appearance of the test solution was assessed, the pH measured and the adrenaline content measured together with impurities.
# [3] = 1.0 mg/ml adrenaline (tartrate), pH 3.4, 0.6% sodium chloride; 25° C., 13400 lux visible light, 1.50 W·h/m^2 UV, up to 28 days
# Protocol: as §3, §4
# [4] = 60° C., weeks 0-4; FIGS. 8 and 9
# Protocol: as §1
# as §2, with “%. […]” for “%.”
# Each sample solution was split into two lots. […] Samples were pulled from both conditions at 0, 7, 14 and 28 days At each pull point, the appearance of the test solution was assessed, the pH measured and the adrenaline content measured together with impurities.
# [5] = auto-oxidation rate increases with pH
"best metabisulfite:adrenaline ratio on the basis of total impurities from heat stress ([2]; 1.0 mg/ml adrenaline (tartrate), pH 3.4, 0.6% sodium chloride, 60° C., up to 28 days)","first choice of metabisulfite content with respect to adrenaline ([2]; considering both stresses (thermal 60° C. and photo-stress), loss of adrenaline, FIGS. 4 and 5)",best metabisulfite:adrenaline ratio on the basis of total impurities from photo-stress [3],optimum sulfite:adrenaline ratio [4],pH for maximum stability of epinephrine in solution [5],SMILES,advantage of chelating agent for adrenaline solution stability [1]
–,–,–,–,–,O=C([O-])CN(CCN(CC(=O)[O-])CC(=O)O)CC(=O)O.[Na+].[Na+] [di-sodium edetate],no advantage
0.42,half molar,0.5,about 1.0,about 3.4,"CNC[C@H](O)c1ccc(O)c(O)c1 [epinephrine, (R)-4-(1-hydroxy-2-(methylamino)ethyl)benzene-1,2-diol]",–
